From article PMC7587962, “Evaluation of Cytotoxicity and α-Glucosidase Inhibitory Activity of Amide and Polyamino-Derivatives of Lupane Triterpenoids” (Molecules, 2020)

Experiments:
[1] = test system: A549/ATCC; experiment: NCI-60 SRB screen: non-small cell lung cancer A549/ATCC; type: cell-based, human; conditions: A549/ATCC
[2] = test system: HCC-2998; experiment: NCI-60 SRB screen: colon cancer HCC-2998; type: cell-based, human; conditions: HCC-2998
[3] = test system: RXF 393; experiment: NCI-60 SRB screen: renal cancer RXF 393; type: cell-based, human; conditions: RXF 393
[4] = test system: HL-60(TB); experiment: NCI-60 SRB screen: leukemia HL-60(TB); type: cell-based; conditions: Homo sapiens, 48 h, HL-60(TB)
[5] = test system: RPMI-8226; experiment: NCI-60 SRB screen: leukemia RPMI-8226; type: cell-based; conditions: Homo sapiens, 48 h, RPMI-8226
[6] = test system: CCRF-CEM; experiment: NCI-60 SRB screen: leukemia CCRF-CEM; type: cell-based; conditions: Homo sapiens, 48 h
[7] = test system: SN12C; experiment: NCI-60 SRB screen: renal cancer SN12C; type: cell-based, human
[8] = test system: IGROV1; experiment: NCI-60 SRB screen: ovarian cancer IGROV1; type: cell-based, human; conditions: IGROV1
[9] = test system: OVCAR-4; experiment: NCI-60 SRB screen: ovarian cancer OVCAR-4; type: cell-based; conditions: Homo sapiens; OVCAR-4; five concentrations, 48 h, SRB; read-out: GI50
[10] = test system: NCI-H460; experiment: NCI-60 SRB screen: non-small cell lung cancer NCI-H460; type: cell-based; conditions: Homo sapiens, 48 h, NCI-H460
[11] = test system: Melanoma subpanel; experiment: NCI-60 screen, subpanel Melanoma
[12] = test system: NCI-H23; experiment: NCI-60 SRB screen: non-small cell lung cancer NCI-H23; type: cell-based, human; conditions: NCI-H23
[13] = test system: UO-31; experiment: NCI-60 SRB screen: renal cancer UO-31; type: cell-based, human; conditions: UO-31
[14] = test system: ACHN; experiment: NCI-60 SRB screen: renal cancer ACHN; type: cell-based, human
[15] = test system: SNB-19; experiment: NCI-60 SRB screen: CNS cancer SNB-19; type: cell-based, human; conditions: SNB-19
[16] = test system: MOLT-4; experiment: NCI-60 SRB screen: leukemia MOLT-4; type: cell-based; conditions: Homo sapiens, 48 h, MOLT-4
[17] = test system: DU-145; experiment: NCI-60 SRB screen: prostate cancer DU-145; type: cell-based, human; conditions: DU-145
[18] = test system: Leukemia subpanel; experiment: NCI-60 screen, subpanel Leukemia
[19] = test system: SF-539; experiment: NCI-60 SRB screen: CNS cancer SF-539; type: cell-based, human; conditions: SF-539
[20] = test system: OVCAR-5; experiment: NCI-60 SRB screen: ovarian cancer OVCAR-5; type: cell-based, human; conditions: OVCAR-5
[21] = test system: HT29; experiment: NCI-60 SRB screen: colon cancer HT29; type: cell-based; conditions: Homo sapiens, HT29
[22] = test system: NCI-H522; experiment: NCI-60 SRB screen: non-small cell lung cancer NCI-H522; type: cell-based, human; conditions: NCI-H522
[23] = test system: KM12; experiment: NCI-60 SRB screen: colon cancer KM12; type: cell-based, human; conditions: KM12
[24] = test system: NSCL cancer subpanel; experiment: NCI-60 screen, subpanel NSCL cancer
[25] = test system: A498; experiment: NCI-60 SRB screen: renal cancer A498; type: cell-based, human; conditions: A498
[26] = test system: Renal Cancer subpanel; experiment: NCI-60 screen, subpanel Renal Cancer
[27] = test system: SF-295; experiment: NCI-60 SRB screen: CNS cancer SF-295; type: cell-based, human; conditions: SF-295
[28] = test system: NCI-H322M; experiment: NCI-60 SRB screen: non-small cell lung cancer NCI-H322M; type: cell-based, human
[29] = test system: UACC-257; experiment: NCI-60 SRB screen: melanoma UACC-257; type: cell-based, human; conditions: UACC-257
[30] = test system: MDA-MB-468; experiment: NCI-60 SRB screen: breast cancer MDA-MB-468; type: cell-based, human
[31] = test system: PC-3; experiment: NCI-60 SRB screen: prostate cancer PC-3; type: cell-based, human; conditions: PC-3
[32] = test system: 60 human tumor cell lines; conditions: single dose 10 µM
[33] = test system: HOP-92; experiment: NCI-60 SRB screen: non-small cell lung cancer HOP-92; type: cell-based, human; conditions: HOP-92
[34] = test system: EKVX; experiment: NCI-60 SRB screen: non-small cell lung cancer EKVX; type: cell-based, human
[35] = test system: K-562; experiment: NCI-60 SRB screen: leukemia K-562; type: cell-based, human; conditions: K-562
[36] = test system: MDA-MB-435; experiment: NCI-60 SRB screen: melanoma MDA-MB-435; type: cell-based, human; conditions: MDA-MB-435
[37] = test system: M14; experiment: NCI-60 SRB screen: melanoma M14; type: cell-based, human; conditions: M14
[38] = Homo sapiens, five concentrations, 48 h, SRB, read-out: GI50
[39] = single dose 10 µM, read-out: Percentage Cell Growth
[40] = five concentrations, SRB, read-out: GI50

Compound: C=C(C)[C@@H]1CC[C@]2(C(=O)NCCNCCNCCN)CC[C@]3(C)[C@H](CC[C@@H]4[C@@]5(C)CCC(=O)C(C)(C)[C@@H]5CC[C@]43C)[C@@H]12 [Compound 11]
- Percentage Cell Growth ([1]; single dose 10 µM): −76.50%
- GI50 [1, 38]: 7.69 µM
- Percentage Cell Growth ([2]; single dose 10 µM): −90.04%
- GI50 [2, 38]: 7.16 µM
- GI50 [3, 38]: 5.6 µM
- Percentage Cell Growth ([3]; single dose 10 µM): −71.88%
- activity at 10 µM [4, 39]: -35.6%
- GI50 [4, 40]: 8.88 µM
- activity at 10 µM [5, 39]: -30.7%
- GI50 [5, 40]: 6.78 µM
- activity at 10 µM [6, 39]: -11.3%
- GI50 [6, 40]: 9.65 µM
- GI50 [7, 38]: 7.56 µM
- Percentage Cell Growth ([7]; single dose 10 µM): −88.48%
- GI50 ([8]; Homo sapiens, IGROV-1, five concentrations, 48 h, SRB, read-out: GI50): 6.42 µM
- Percentage Cell Growth ([8]; single dose 10 µM): −84.81%
- GI50 [9]: 7.39 µM
- activity at 10 µM [10, 39]: -90.9%
- GI50 [10, 40]: 9.4 µM
- MID b, average sensitivity of all cell line of particular subpanel [11]: 12.84 µM
- Selectivity, ratio MID a: MID b [11]: 0.71
- GI50 [12, 38]: 9.14 µM
- Percentage Cell Growth ([12]; single dose 10 µM): −35.23%
- GI50 [13, 38]: 6.85 µM
- Percentage Cell Growth ([13]; single dose 10 µM): −96.35%
- GI50 [14, 38]: 13.8 µM
- Percentage Cell Growth ([14]; single dose 10 µM): −83.29%
- GI50 [15, 38]: 8.5 µM
- Percentage Cell Growth ([15]; single dose 10 µM): −78.54%
- activity at 10 µM [16, 39]: -16.3%
- GI50 [16, 40]: 6.96 µM
- Percentage Cell Growth ([17]; single dose 10 µM): −56.67%
- GI50 [17, 38]: 7.47 µM
- MID b, average sensitivity of all cell line of particular subpanel [18]: 7.73 µM
- Selectivity, ratio MID a: MID b [18]: 1.19
- GI50 [19, 38]: 7.53 µM
- Percentage Cell Growth ([19]; single dose 10 µM): −92.71%
- GI50 [20, 38]: 8.78 µM
- Percentage Cell Growth ([20]; single dose 10 µM): −44.11%
- activity at 10 µM ([21]; HT-29, 48 h, single dose 10 µM, read-out: Percentage Cell Growth): -77.4%
- GI50 ([21]; HT-29, five concentrations, 48 h, SRB, read-out: GI50): 7.17 µM
- GI50 [22, 38]: 8.72 µM
- Percentage Cell Growth ([22]; single dose 10 µM): −69.70%
- GI50 [23, 38]: 8.47 µM
- Percentage Cell Growth ([23]; single dose 10 µM): −81.93%
- MID b, average sensitivity of all cell line of particular subpanel [24]: 7.58 µM
- Selectivity, ratio MID a: MID b [24]: 1.21
- Percentage Cell Growth ([25]; single dose 10 µM): 80.81%
- GI50 [25, 38]: 42.6 µM
- MID b, average sensitivity of all cell line of particular subpanel [26]: 12.52 µM
- Selectivity, ratio MID a: MID b [26]: 0.73
- GI50 [27, 38]: 9.42 µM
- Percentage Cell Growth ([27]; single dose 10 µM): −54.47%
- GI50 [28, 38]: 7.32 µM
- Percentage Cell Growth ([28]; single dose 10 µM): −81.08%
- GI50 [29, 38]: 7.91 µM
- Percentage Cell Growth ([29]; single dose 10 µM): −10.66%
- GI50 [30, 38]: 8.09 µM
- Percentage Cell Growth ([30]; single dose 10 µM): −49.06%
- GI50 [31, 38]: 6.26 µM
- Percentage Cell Growth ([31]; single dose 10 µM): −24.64%
- cancer cell lethality, range of percentage growth ([32]; cell lines with negative growth): −4.36% to −96.35%
- cases of cancer cell lethality ([32]; number of cell lines): 50
- Percentage Cell Growth ([33]; single dose 10 µM): −65.19%
- GI50 [33, 38]: 2.93 µM
- GI50 [34, 38]: 7.34 µM
- Percentage Cell Growth ([34]; single dose 10 µM): 11.37%
- GI50 ([35]; Homo sapiens, K562, five concentrations, 48 h, SRB, read-out: GI50): 8.2 µM
- Percentage Cell Growth ([35]; single dose 10 µM): −16.99%
- GI50 [36, 38]: 8.7 µM
- Percentage Cell Growth ([36]; single dose 10 µM): −49.89%
- GI50 [37, 38]: 8.38 µM
- Percentage Cell Growth ([37]; single dose 10 µM): −62.82%
